Reference: patent publication US20250332096A1, “BEVERAGE FORMULATION AND METHOD OF PROMOTING CELLULAR HYDRATION BY ENHANCING INTRACELLULAR PERMEATION” (Eastpond Laboratories Limited, priority 2024, published 2025)

Assays:
C. elegans = C. elegans longevity in hydration modified water (Example 5); assay type: in vivo; details: for effect on C. elegans survival: added to the culture media; for Animals alive, % of initial: 0.1% w/w in nutritive media, USA I water
Method: C. elegans nematodes were grown in petri-type dishes containing normal nutrient liquid media prepared alternatively with USA I water (described in Example 2) lacking any further additive component (control) or the same water supplemented with a parent α-, β-, or γ-cyclodextrin, and/or a bioactive agent, as an active component of cellular hydration. Fifty ±3 worms were transferred to each dish. Each condition was repeated in triplicate. Experiments were repeated for USA II and BP I waters described in Example 2.
• A. Addition of parent α-, β- and γ-cyclodextrins. • B. Addition of L-arginine and nicotinamide. • C. Addition of inclusion complexes of cyclodextrins with L-arginine and nicotinamide.

[1] = system: Wheat seeds (Triticum aestivum); experiment: Wheat seed germination; assay type: in vivo; details: 0.5% w/w in USA I water
Method: Wheat seeds (Triticum aestivum) were germinated using USA I, USA II, and BP I waters described for Example 2. Germination rate using un-supplemented (control) water was compared to that with the same water variously supplemented with a cyclodextrin component, and/or a bioactive agent, as an active component of cellular hydration. For each condition, ten seeds were placed in continuous water contact in a Petri-type dish kept at 25 C in 12 hr light/dark cycles. Photometric images were recorded on days 1 to 6 after seeding. The percentage of seeds germinated was calculated and compared as a function of time and of the applied additive concentrations.
Water samples for seed germination were used alone with no additive, or containing cyclodextrins, or containing clathrate inclusion complexes of cyclodextrin with L-arginine or with nicotinamide (both obtained from Sigma Chemical Co.; St. Louis, MO), or with L-carnitine (from Lonza AG; Switzerland). […] Additive solutions were prepared fresh on the day of germination start.
Parent cyclodextrins α-cyclodextrin (ACD), β-cyclodextrin (BCD), and γ-cyclodextrin (GCD), were obtained from Wacker Chemie (Munich, Germany). The following derivatized cyclodextrins were obtained from Cyclolab Ltd. (Budapest, Hungary): hydroxypropylated-beta-cyclodextrin (DS-3)(HPBCD), carboxymethylated-β-cyclodextrin (DS-3.5)(CMBCD), 2-hydroxy-3-N,N,N-trimethylamino)propyl-β-cyclodextrin chloride (DS-3.6)(QABCD).
Germination kinetics in control and additive-modified water under identical conditions were quantified as the percentage of the seeds having a sprout. Each determination consisted of 100 seeds for each parameter. Results are reported in Table 5, below, and in FIGS. 11-13. • A) Cyclodextrin/L-Arg Inclusion Complex Increases Seed Germination.

pH of test solutions = assay type: physicochemical; details: purified water
Method: (§1) 1:1 mol/mol stoichiometry complexes were prepared for the experiment. Nicotinic acid/alpha-CD complex was prepared by dissolving 11.22 g nicotinic acid and 98.63 g alpha-CD (89.66 g on dry basis) in 700 ml purified water. Nicotinamide/alpha-CD complex was prepared by dissolving 5.57 g nicotinamide and 49.3 g alpha-CD (44.4 g on dry basis) in 350 ml purified water and L-arginine/alpha-CD complex was prepared by dissolving 15.18 g L-arginine and 94.26 g alpha-CD (85.69 g on dry basis) in 700 ml purified water. Further, for all the three complexes, the liquid was frozen in dry ice bath and lyophilized. The dry lyophilizate was ground and sieved.
(§2) Clarity, pH, conductivity, density, viscosity, turbidity, surface tension and osmolality were determined in solutions prepared with purified water. […]

[2] = Viscosity of test solutions; assay type: physicochemical; details: purified water, 2.00%
Method: as §1
Clarity, pH, conductivity, density, viscosity, turbidity, surface tension and osmolality were determined in solutions prepared with purified water.

[3] = Visual inspection (clarity) of test solutions; assay type: physicochemical; details: purified water
Method: as §1, §2

[4] = Turbidity of test solutions; assay type: physicochemical; details: purified water (reference)
Method: as §1, §2

[5] = Density measurements of test solutions; assay type: physicochemical
Method: The current study further manifests the density measurements in a cyclodextrin concentration dependent manner.
Water samples used were bottled water and tap water; wherein the tap water comprises the following impurities and properties: Free active chlorine (0.18 mg/1), Chloride (24 mg/1), Iron (6 μg/1), Manganese (2 μg/1), Nitrate (9 mg/1), Nitrite (<0.03 mg/1), Ammonium (<0.04 mg/1), Hardness of water (122 mg/l CaO), Conductivity (442 μS/cm) and pH 8. Purified water was produced by removal of dissolved ions by Merck/Millipore Synergy® Water Purification System at Cyclolab. The water quality produced Type 1 water (18.2 MΩ·cm at 25° C. ultrapure water) from pretreated water.
as §1, §2
However, it may not be established exactly which ionic species (Mg2+, Ca2+, Na+) causes this perturbation.

[6] = Conductivity of test solutions; assay type: physicochemical; details: purified water
Method: as §1, §2

[7] = Surface tension of test solutions; assay type: physicochemical; details: purified water
Method: as §1, §2

[8] = Water bonding detected by NIR spectroscopy; assay type: physicochemical; details: wavelength region 900-1200 nm; 0.1%-5% w/w
[9] = Water bonding detected by NIR spectroscopy; assay type: physicochemical; details: for water-bond interactions, second-derivative NIR spectra: 0.1%-5% w/w
Method: Hydration bond energies in pure waters and solutions of the same waters containing cyclodextrin compounds were assayed using IR spectroscopy in the near and middle infrared ranges. To record linear signals throughout an entire wavelength range, attenuation from water absorbance was minimized with a short optical length cuvette. NIR range spectra were registered on a FOSS NIR Systems, Inc. 6500 spectrometer and Sample Transport Module (STM) using a 1 mm-sized cuvette. Transmission spectra were collected from 1100-2498 nm using a lead sulfide (PbS) detector and Vision 2.51 software (2001; FOSS NIRSystems, Inc.) A Perkin-Elmer Spectrum 400 FT-NIR/FT-IR spectrometer and UATR (Universal Attenuated Total Reflectance; ZnSe-diamond crystal, 1× flat top plate) sample handling unit were used to obtain spectra across 2500-15385 nm (reported as 4000-650 cm^1). Measurements were performed at 24 C using a triglycine-sulfate (TGS) detector and Spectrum ES 6.3.2 software (PerkinElmer, 2008). Three samples of water were used in the present study. A first water sample was purified by reverse osmosis, carbon filtration, ultraviolet light exposure, membrane filtration to 0.2 micron absolute, and ozonation. Second and third water samples were not purified. […] No. CYL-2322. • β-cyclodextrin (βCD also denoted as BCD). Lot. No. CYL-2518/2. • γ-cyclodextrin (γCD also denoted as GCD), Lot. No. […] No. […] No. CYL-2258. • carboxymethyl-β-cyclodextrin (CMBCD), Lot. No. CYL-2576. • quaternary-ammonium-β-cyclodextrin (QABCD).

In the case of `NC(=O)c1cccnc1` [nicotinamide, reference compound], the “effect on C. elegans survival” value (C. elegans) is reported as “little effect”, the “wheat seed germination, percentage of the seeds having a sprout” value (from here on “wheat seed germination, percentage”) ([1]; day 0) is reported as 0% and the “wheat seed germination, percentage” value ([1]; day 1) is reported as 0%. The “wheat seed germination, percentage” value ([1]; day 2) was 4%, the “wheat seed germination, percentage” value ([1]; day 3) was 10% and the “wheat seed germination, percentage” value ([1]; day 4) was 60%.

In the case of `OC[C@H]1O[C@@H]2O[C@H]3[C@H](O)[C@@H](O)[C@@H](O[C@H]4[C@H](O)[C@@H](O)[C@@H](O[C@H]5[C@H](O)[C@@H](O)[C@@H](O[C@H]6[C@H](O)[C@@H](O)[C@@H](O[C@H]7[C@H](O)[C@@H](O)[C@@H](O[C@H]8[C@H](O)[C@@H](O)[C@@H](O[C@H]1[C@H](O)[C@H]2O)O[C@@H]8CO)O[C@@H]7CO)O[C@@H]6CO)O[C@@H]5CO)O[C@@H]4CO)O[C@@H]3CO` [β-Cyclodextrin, β-cyclodextrin], the “Animals alive, % of initial” value (C. elegans; life span 10 days) is reported as 100 % of initial, the “Animals alive, % of initial” value (C. elegans; life span 15 days) is reported as 18 % of initial and the “Animals alive, % of initial” value (C. elegans; life span 18 days) is reported as 0 % of initial.

With `OC[C@H]1O[C@@H]2O[C@H]3[C@H](O)[C@@H](O)[C@@H](O[C@H]4[C@H](O)[C@@H](O)[C@@H](O[C@H]5[C@H](O)[C@@H](O)[C@@H](O[C@H]6[C@H](O)[C@@H](O)[C@@H](O[C@H]7[C@H](O)[C@@H](O)[C@@H](O[C@H]8[C@H](O)[C@@H](O)[C@@H](O[C@H]9[C@H](O)[C@@H](O)[C@@H](O[C@H]1[C@H](O)[C@H]2O)O[C@@H]9CO)O[C@@H]8CO)O[C@@H]7CO)O[C@@H]6CO)O[C@@H]5CO)O[C@@H]4CO)O[C@@H]3CO` [Gamma Cyclodextrin, γ-cyclodextrin] the “number of animals surviving to old ages” value (C. elegans; after day 15, 0.1% w/w) was “significantly increased”, the “Animals alive, % of initial” value (C. elegans; life span 10 days) was 100 % of initial and the “Animals alive, % of initial” value (C. elegans; life span 15 days) was 13 % of initial. For the same compound, the “Animals alive, % of initial” value (C. elegans; life span 18 days) was 2 % of initial, the pH (pH of test solutions; 0.05%) was 6.82 and the pH (pH of test solutions; 0.10%) was 6.79. For the same compound, the pH (pH of test solutions; 1.00%) was 6.87, the pH (pH of test solutions; 2.00%) was 6.77 and the “Viscosity (25 C.)” value [2] was 0.97 cP. For the same compound, the “Visual Inspection” value ([3]; 0.05%) was “clear”, the “Visual Inspection” value ([3]; 0.10%) was “clear” and the “Visual Inspection” value ([3]; 1.00%) was “hazy”. The “Visual Inspection” value ([3]; 2.00%) was “hazy”, the “Turbidity (Abs, λ = 410 nm)” value ([4]; 1.00%) was 0.065 Abs and the “Turbidity (Abs, λ = 410 nm)” value ([4]; 2.00%) was 0.108 Abs. It also gave a Density (at 22 C.) ([5]; Tap water, 0.05%) of 0.9997 ± 0.0007 g/cm³, a Density (at 22 C.) ([5]; Tap water, 0.10%) of 1.0002 ± 0.0004 g/cm³ and a Density (at 22 C.) ([5]; Tap water, 1.00%) of 1.0035 ± 0.0007 g/cm³. For the same compound, the Density (at 22 C.) ([5]; Tap water, 2.00%) was 1.0094 ± 0.0006 g/cm³, the Density (at 22 C.) ([5]; purified water, 0.05%) was 0.995 ± 0.001 g/cm³ and the Conductivity ([6]; 0.05%) was 25.0 μS · cm^−1. It also gave a Conductivity ([6]; 0.10%) of 25.0 μS · cm^−1, a Conductivity ([6]; 1.00%) of 27.0 μS · cm^−1 and a Conductivity ([6]; 2.00%) of 27.0 μS · cm^−1. The “Surface Tension” value ([7]; 0.05%) was 72 mN · m^−1, the “Surface Tension” value ([7]; 0.10%) was 72 mN · m^−1 and the “Surface Tension” value ([7]; 1.00%) was 73 mN · m^−1. For the same compound, the “Surface Tension” value ([7]; 2.00%) was 73 mN · m^−1.

With `CC(O)COC[C@H]1O[C@@H]2O[C@H]3[C@H](O)[C@@H](O)[C@@H](O[C@H]4[C@H](O)[C@@H](O)[C@@H](O[C@H]5[C@H](O)[C@@H](O)[C@@H](O[C@H]6[C@H](O)[C@@H](O)[C@@H](O[C@H]7[C@H](O)[C@@H](O)[C@@H](O[C@H]8[C@H](O)[C@@H](O)[C@@H](O[C@H]1[C@H](O)[C@H]2O)O[C@@H]8COCC(C)O)O[C@@H]7COCC(C)O)O[C@@H]6COCC(C)O)O[C@@H]5COCC(C)O)O[C@@H]4COCC(C)O)O[C@@H]3COCC(C)O` (stereo partly drawn) [HP-β-Cyclodextrin, 2-hydroxypropyl-β-cyclodextrin] the “Animals alive, % of initial” value (C. elegans; life span 10 days) was 96 % of initial, the “Animals alive, % of initial” value (C. elegans; life span 15 days) was 17 % of initial and the “Animals alive, % of initial” value (C. elegans; life span 18 days) was 0 % of initial. For the same compound, the “water-bond interactions, second-derivative NIR spectra” value (“water-bond interactions” for short) [8] was “further significantly modified”, the “water-bond interactions” value ([9]; 1200-1500 nm) was “significantly modified” and the “water-bond interactions” value ([9]; 1620-1710 nm) was “significantly modified”. For the same compound, the “water-bond interactions” value ([9]; 2170-2370 nm) was “significantly modified”.

In the case of “2-hydroxy-3-N,N,N-trimethylamino)propyl-β-cyclodextrin chloride [Quaternary-ammonium-β-Cyclodextrin]”, the “Animals alive, % of initial” value (C. elegans; life span 10 days) is reported as 98 % of initial, the “Animals alive, % of initial” value (C. elegans; life span 15 days) is reported as 13 % of initial and the “Animals alive, % of initial” value (C. elegans; life span 18 days) is reported as 2 % of initial. The “water-bond interactions” value [8] was “significantly modified”, the “water-bond interactions” value ([9]; 1200-1500 nm) was “significantly modified” and the “water-bond interactions” value ([9]; 1620-1710 nm) was “significantly modified”. The “water-bond interactions” value ([9]; 2170-2370 nm) was “further significantly modified” and the “modification of micro-structure of hydrogen bonded cluster systems in bulk water (spectral changes)” value ([9]; comparison among cyclodextrin-treated water samples) was “largest”.

In the case of `N=C(N)NCCC[C@H](N)C(=O)O` [L-arginine, reference compound], the “effect on C. elegans survival” value (C. elegans) is reported as “little effect”.

For carboxymethyl-β-cyclodextrin, the “Animals alive, % of initial” value (C. elegans; life span 10 days) was 94 % of initial, the “Animals alive, % of initial” value (C. elegans; life span 15 days) was 11 % of initial and the “Animals alive, % of initial” value (C. elegans; life span 18 days) was 0 % of initial. The “water-bond interactions” value [8] was “further significantly modified”, the “water-bond interactions” value ([9]; 1200-1500 nm) was “further significantly modified” and the “water-bond interactions” value ([9]; 1620-1710 nm) was “significantly modified”. The “water-bond interactions” value ([9]; 2170-2370 nm) was “significantly modified”.
